This is an account of results in patent US20170240556A1, “BIFLUORODIOXALANE-AMINO-BENZIMIDAZOLE KINASE INHIBITORS FOR THE TREATMENT OF CANCER, AUTOIMMUNEINFLAMMATION AND CNS DISORDERS” (4SC DISCOVERY GMBH, priority 2012, published 2017).

Sequence of Casein kinase 1 delta (CSKN1D) (P48730 whole entry): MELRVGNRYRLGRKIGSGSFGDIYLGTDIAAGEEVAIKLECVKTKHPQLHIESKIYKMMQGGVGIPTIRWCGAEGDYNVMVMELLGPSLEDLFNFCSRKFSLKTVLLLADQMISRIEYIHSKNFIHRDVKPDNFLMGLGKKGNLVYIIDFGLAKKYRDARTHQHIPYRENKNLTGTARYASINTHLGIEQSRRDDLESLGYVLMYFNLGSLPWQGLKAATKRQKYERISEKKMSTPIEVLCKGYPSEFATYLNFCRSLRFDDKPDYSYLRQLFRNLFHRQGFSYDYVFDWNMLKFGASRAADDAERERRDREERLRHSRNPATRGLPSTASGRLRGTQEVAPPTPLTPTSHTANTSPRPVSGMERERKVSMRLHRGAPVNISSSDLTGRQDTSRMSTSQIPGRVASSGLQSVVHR

For this experiment, the target named is Casein kinase 1 delta (CSKN1D) (Homo sapiens, UniProt P48730). Put plainly: Casein kinase assay, CK1 delta. It counts as biochemical. To be noted: recombinant CSKN1D 5 nM, ATP 10 μM. As to the method:
The recombinant protein Casein kinase 1 delta (CSKN1D) was added to the substrate solution in a concentration of 5 nM and gently mixed. Dilution series in of compounds of the present invention in DMSO were added to the reaction mixture, followed after 20 min by addition of a mixture of ATP and ^33P-ATP (specific activity 0.01 μCi/μl final) to a final concentration of 10 μM. Reactions were carried out at 25° C. for 120 min, followed by spotting the reactions onto P81 ion exchange filter paper. Unbound phosphate was removed by washing of the filters in 0.75% phosphoric acid. […] IC50 values and curve fits were obtained using the program Prism® (Graph Pad Software).
For the compound `O=C(Nc1nc2cc3c(cc2[nH]1)OC(F)(F)O3)c1cncc(-c2ccco2)c1` [Compound 4B, N-(2,2-difluoro-5H-[1,3]dioxolo[4′,5′:4,5]benzo[1,2-d]imidazol-6-yl)-5-(furan-2-yl)nicotinamide], the IC50 (usually the concentration that gives 50% inhibition) was under 200 nM.

In the case of `O=C(Nc1nc(C(=O)Nc2nc3cc4c(cc3[nH]2)OC(F)(F)O4)ns1)c1ccsc1` [Compound 10B, N-(2,2-difluoro-5H-[1,3]dioxolo[4′,5′:4,5]benzo[1,2-d]imidazol-6-yl)-5-(thiophene-3-carboxamido)-1,2,4-thiadiazole-3-carboxamide], the concentration for half-maximal inhibition (IC50) is under 200 nM.

`O=C(Nc1nc2cc3c(cc2[nH]1)OC(F)(F)O3)c1csc(-c2cccc(F)c2)n1` [Compound 12B, N-(2,2-difluoro-5H-[1,3]dioxolo[4′,5′:4,5]benzo[1,2-d]imidazol-6-yl)-2-(3-fluorophenyl)thiazole-4-carboxamide]: the IC50 is under 200 nM.

For `Cn1cc(C(=O)Nc2nc3cc4c(cc3[nH]2)OC(F)(F)O4)cn1` [Compound 13B, N-(2,2-difluoro-5H-[1,3]dioxolo[4′,5′:4,5]benzo[1,2-d]imidazol-6-yl)-1-methyl-1H-pyrazole-4-carboxamide], the IC50 is under 200 nM.

On to `O=C(Nc1nc2cc3c(cc2[nH]1)OC(F)(F)O3)c1ccnc(N2CCSCC2)c1` [Compound 14B, N-(2,2-difluoro-5H-[1,3]dioxolo[4′,5′:4,5]benzo[1,2-d]imidazol-6-yl)-2-thiomorpholinoisonicotinamide], for which the 50% inhibitory concentration (IC50) is under 200 nM.

As for `O=C(Nc1nc2cc3c(cc2[nH]1)OC(F)(F)O3)c1csc(-c2cccc(OC(F)(F)F)c2)n1` [Compound 19B], the half-inhibitory concentration (IC50) was in the range of 200 to 1000 nM.

On to `O=C(Nc1nc2cc3c(cc2[nH]1)OC(F)(F)O3)c1ccc(-c2ccccc2)cc1` [Compound 21B], for which the IC50 lay within 200 to 1000 nM.

For `O=C(Nc1nc2cc3c(cc2[nH]1)OC(F)(F)O3)c1ccc(-n2cnnn2)cc1` [Compound 22B, N-(2,2-difluoro-5H-[1,3]dioxolo[4′,5′:4,5]benzo[1,2-d]imidazol-6-yl)-4-(1H-tetrazol-1-yl)benzamide], the IC50 is under 200 nM.

Turning to `O=C(Nc1nc2cc3c(cc2[nH]1)OC(F)(F)O3)c1cncc(-c2cccs2)c1` [Compound 23B, N-(2,2-difluoro-5H-[1,3]dioxolo[4′,5′:4,5]benzo[1,2-d]imidazol-6-yl)-5-(thiophen-2-yl)nicotinamide], the IC50 was under 200 nM.

For the compound `COc1cccc(C(=O)Nc2nc3cc4c(cc3[nH]2)OC(F)(F)O4)n1` [Compound 24B], the IC50 is 200 to 1000 nM.

In the case of `O=C(Nc1nc2cc3c(cc2[nH]1)OC(F)(F)O3)c1cncc(N2CCOCC2)c1` [Compound 25B, N-(2,2-difluoro-5H-[1,3]dioxolo[4′,5′:4,5]benzo[1,2-d]imidazol-6-yl)-5-morpholinonicotinamide], the IC50 is under 200 nM.

For the compound `COc1ccnc(C(=O)Nc2nc3cc4c(cc3[nH]2)OC(F)(F)O4)c1` [Compound 26B], the IC50 is over 1000 nM.

In the case of `Cc1onc(-c2ccccc2)c1C(=O)Nc1nc2cc3c(cc2[nH]1)OC(F)(F)O3` [Compound 50, N-(2,2-difluoro-5H-[1,3]dioxolo[4′,5′:4,5]benzo[1,2-d]imidazol-6-yl)-5-methyl-3-phenylisoxazole-4-carboxamide], the IC50 was over 1000 nM.

For `O=C(Nc1nc2cc3c(cc2[nH]1)OC(F)(F)O3)c1ccc([N+](=O)[O-])cc1` [Compound 58, N-(2,2-difluoro-5H-[1,3]dioxolo[4′,5′:4,5]benzo[1,2-d]imidazol-6-yl)-4-nitrobenzamide], the 50% inhibitory concentration (IC50) lay within 200 to 1000 nM.

As for `O=C(Nc1nc2cc3c(cc2[nH]1)OC(F)(F)O3)c1ccc2ccccc2n1` [Compound 59, N-(2,2-difluoro-5H-[1,3]dioxolo[4′,5′:4,5]benzo[1,2-d]imidazol-6-yl)quinoline-2-carboxamide], the IC50 was over 1000 nM.

For the compound `Nc1ccc(C(=O)Nc2nc3cc4c(cc3[nH]2)OC(F)(F)O4)cc1` [Compound 60, 4-amino-N-(2,2-difluoro-5H-[1,3]dioxolo[4′,5′:4,5]benzo[1,2-d]imidazol-6-yl)benzamide], the IC50 is under 200 nM.
